The text below walks through data of US5776935A, “Pyrido-phtalazin diones and their use against neurological disorders associated with excitotoxicity and malfunctioning of glutamatergic neurotransmission” (Merz & Co. GmbH & Co., priority 1996, dated 1998).

Usually IC50 stands for the midpoint of a concentration-inhibition curve. Low values mean higher potency, high ones lower potency.

In assay [1] the target is T1, NMDA receptor (Mus musculus, UniProt P35438).
T1 construct: from tissue; host or cells: living mice (albino Swiss males for NMDA and PTZ tests, NMR females for MES)
As to the kind of experiment: Maximal electroshock (MES)-induced tonic convulsions. The assay is classed as in vivo. The note with it: i.p.; for ED50: mouse, ip, 0.25 h, read-out: MES ID50. As to the method:
To assess NMDA receptor antagonistic properties of the tested agents by assessing anticonvulsive effects. Additionally the role of organic acid transporters in the elimination from the brain of tested agents was assessed by using an inhibitor, Probenicid, on the duration of anticonvulsive activity.
Male albino Swiss mice (19-21 g) housed 10-15 per cage were used for the NMDA lethality test (Leander et al., 1988). For pentylenetetrazol (PTZ)-induced convulsions male albino Swiss mice (25-34 g.) housed 40 per cage (58×38×20 cm) were used while in the maximal electroshock (MES) and motor impairment tests NMR female mice (18-28 g) housed 5 per cage were employed. All animals were kept with water and food ad libittum under a 12-h light-dark cycle (light on at 6 a.m.), and at a controlled temperature (20°±0.5° C.). All experiments were performed between 10 a.m. and 5 p.m. Tested agents were injected 15 min. i.p before the induction of convulsions if not stated otherwise (see below). Mrz 2/502 was dissolved in saline added with NaOH. Most other agents were dissolved in the following solution: 0.606 g Tris; 5.0 g. glucose; 0.5 g. Tween 80; and 95 ml water. The choline and tetramethylammonium salts were dissolved in distilled water.
MES (100 Hz, 0.5 sec shock duration, 50 mA shock intensity, 0.9 ms impulse duration, Ugo Basile) was applied through corneal electrodes. The presence of tonic convulsions was scored (tonic extension of hind paws with minimum angle to the body of 90°). In an additional experiment mice were injected with Probenicid (200 mg/kg) 30 min before administration of the tested agents to assess the role of organic acid transport in elimination (duration of action). The aim was to obtain ED50 s for all parameters scored using the Litchfield Wilcoxon (1949) test for quantal dose responses.

For assay [2], the target named is T2, strychnine-insensitive glycine site (glycineB) of the NMDA receptor (rat cortical membranes) (Rattus norvegicus, UniProt P35439).
T2 construct: The cortex was dissected and homogenised in 20 volumes of ice-cold 0.32M sucrose; from tissue; host or cells: brain cortex membranes of male Sprague-Dawley rats
Kind of assay: [3H]glycine binding assay. The note with it: 20 nM [3H]glycine, 100 μM strychnine. On the procedure: (§1) Tissue preparation was performed according to Foster and Wong (1987). Male Sprague-Dawley rats (200-250g) were decapitated and their brains were removed rapidly. The cortex was dissected and homogenised in 20 volumes of ice-cold 0.32M sucrose using a glass-Teflon homogenizer. The homogenate was centrifuged at 1000×g for 10 min. The pellet was discarded and the supernatant centrifuged at 20,000×g for 20 min. The resulting pellet was resuspended in 20 volumes of distilled water and centrifuged for 20 min at 8000×g. Then the supernatant and the buffy coat were centrifuged three times (48,000× g for 20 min) in the presence of 5 mM Tris-HCl, pH 7.4. All centrifugation steps were carried out at 4° C. After resuspension in 5 volumes of 5 mM Tris-HCl, pH 7.4 the membrane suspension was frozen rapidly at -80° C. until the day of assay. On the day of assay the membranes were thawed and washed four times by resuspension in 5 mM Tris-HCl, pH 7.4 and centrifugation at 48,000× g for 20 min. The final pellet was suspended in assay buffer.
(§2) The amount of protein in the final membrane preparation was determined according to the method of Lowry (1951) with some modifications (Hartfree, 1972). 50 μl of Protein samples (in triplicates) were diluted to 1 ml with distilled water and treated with 0.9 ml of a solution containing 2 g potassium sodium tartrate and 10 g Na2 CO3 in 500 ml 1N NaOH and 500ml water. Blank and standard (with bovine serum albumin) were set up in the same way. The tubes were placed in a water bath at 50° C. for 10 min. and cooled at room temperature. 100 μl of a solution containing 2 g potassium sodium tartrate and 1 g CuSO4 x 5 H2 O in 90 ml water and 10 ml 1N NaOH were added. The samples were left at room temperature for at least 10 min., then 3 ml of Folin-Ciocalteu reagent (1 ml of reagent diluted with 15 ml water) was added rapidly during mixing. The tubes were again heated at 50° C. for 10 min. and cooled to room temperature. Absorbencies were then read in 1 cm cuvets at 650 nm. The final protein concentration used for our studies was between 100 and 250 μg/ml.
(§3) Incubation in both binding assays was terminated using a Millipore filter system. The samples, all in triplicate, were rinsed three times with 2.5 ml ice cold assay buffer over glass fibre filters obtained from Schleicher & Schuell under a constant vacuum. Following separation and rinse the filters were placed into scintillation liquid (5 ml; Ultima Gold) and radioactivity retained on the filters was determined by using conventional liquid scintillation counter (Hewlett Packard, Liquid Scintillation Analyser). `Total binding` was the absolute amount of radioligand bound in the absence of any additives whereas `non-specific` binding was determined in the presence of a high concentration of competitor.
[^3 H]glycine binding assay
[^3 H]glycine binding assays were performed according to the method described by Kessler and co-workers (1989). Rat cortical membranes were prepared as previously described and the final pellet was suspended in 50 mM Tris-acetate, pH 7.4. At least 5 different concentrations of test compounds were incubated with 2OnM [^3 H]glycine for 30 min at 4° C. in the presence of 100 μM strychnine. All compounds were dissolved in water or DMSO, respectively. Non-specific binding was determined by including 100 μM glycine in the incubation mixture. The incubation was terminated by diluting the samples with 2 ml of stop solution (50 mM Tris-HCl including 10 mM magnesium sulphate, pH 7.4, cooled to <2° C.) followed by a further rinse with 2.5 ml buffer. Filtration was performed as rapidly as possible.

Assay [3] concerns the target T3, glycineB site of the NMDA receptor (rat cortical membranes) (Rattus norvegicus, UniProt P35439).
T3 construct: The cortex was dissected and homogenised in 20 volumes of ice-cold 0.32M sucrose; from tissue; host or cells: brain cortex membranes of male Sprague-Dawley rats
As to the kind of experiment: [3H]5,7-DCKA binding assay. The note with it: 10 nM [3H]5,7-DCKA. On the procedure:
as §1, §2, §3
[^3 H]5,7-DCKA binding assay
Experiments were performed according to the methods modified from previous groups (Canton et al., 1991; Yoneda et al., 1993). Membranes were suspended and incubated in 10 mM Tris-HCl, pH 7.4. Incubation time was 45 min at 4° C. Non-specific binding of [^3 H]5,7-DCKA was defined by the addition of unlabeled glycine at 0.1 mM. The stop-solution contained 10 mM Tris-HCl and 10 mM magnesium sulphate, pH 7.4. Filtration was performed as rapidly as possible. Displacement experiments were performed with a fixed [^3 H]5,7-DCKA concentration of 10 nM. Test compounds were diluted in water or DMSO and added in at least 5 different concentrations.

On to `O=c1[nH][nH]c(=O)c2nc3ccc(Cl)cc3cc12` [Mrz 2/501], for which the ED50 in assay [1] (15 min before induction) was above 100 mg/kg. In addition, the IC50 in assay [2] came out at 80 nM; in assay [3], 120 nM.

As to `O=c1[nH]nc(O)c2c1cc1cc(Cl)ccc1[n+]2[O-]` [Mrz 2/502, 8-chloro-4-hydroxy-1-oxo-1,2-dihydropyridazino[4,5-b]-quinoline 5-oxide], in assay [1], the “activity in the MES test” value is listed as “effective”. Also, the “MES ID50” value in assay [1] (15 min before induction, listed as 502, 15 min) is reported as 47.6 mg/kg. Further, the IC50 in assay [2] came out at 13 nM; in assay [3] it was 20 nM.

With `O=c1[nH][nH]c(=O)c2nc3ccc(Br)cc3cc12` [Mrz 2/503], the ED50 in assay [1] (15 min before induction) is above 100 mg/kg. For the same compound, the IC50 in assay [2] was 13 nM; in assay [3], 250 nM.

`O=c1[nH]nc(O)c2c1cc1cc(Br)ccc1[n+]2[O-]` [Mrz 2/514, 8-bromo-4-hydroxy-1-oxo-1,2-dihydropyridazino[4,5-b]-quinoline 5-oxide]: the “activity in the MES test” value in assay [1] is recorded as “effective”. The ED50 in assay [1] (15 min before induction) stood at 20.2 mg/kg. In addition, the IC50 in assay [2] was found to be 4 nM; in assay [3] it was 10 nM.

With `O=c1[nH][nH]c(=O)c2nc3cc(Cl)c(Cl)cc3cc12` [Mrz 2/515], in assay [1] (15 min before induction), the ED50 was above 100 mg/kg. Besides, in assay [3], the IC50 came out at 530 nM.

As for `O=c1[nH]nc(O)c2c1cc1cc(F)ccc1[n+]2[O-]` [Mrz 2/516, 8-fluoro-4-hydroxy-1-oxo-1,2-dihydropyridazino[4,5-b]-quinoline 5-oxide], the “activity in the MES test” value in assay [1] was “effective”. Moreover, the ED50 in assay [1] (15 min before induction) was 16.6 mg/kg. For the same compound, the IC50 in assay [2] stood at 17 nM; in assay [3] it was 300 nM.

As for `O=c1[nH][nH]c(=O)c2nc3ccc(F)cc3cc12` [Mrz 2/519], in assay [1] (15 min before induction), the ED50 was above 60 mg/kg. Moreover, the IC50 is 15 nM in assay [2] and 1100 nM in assay [3].
